From patent publication US20220119354A1, “DIAMINO-SUBSTITUTED PYRIDINES AND PYRIMIDINES AS HERBICIDES” (FMC Corporation, priority 2019, published 2022)

Legend:
Type in all cases: in vivo
rice (Oryza sativa) = experiment: Test B flooded paddy test, rice; details: Flood, 250 g ai/ha, applied to paddy water, 2-leaf stage, visual evaluation after 13 to 15 d
Summary of the method: (§1)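 2-leaf seedlings; pots flooded 3 cm above soil; compound added straight to paddy water; depth maintained. Greenhouse 13–15 d. Visual rating vs controls, 0–100 scale (0 = no effect, 100 = complete control).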

[1] = tested on: pigweed (Amaranthus retroflexus); experiment: Test A preemergence, pigweed; details: 0 to 100 scale; for Pigweed plant response rating: 0 is no effect, 100 is complete control
Summary of the method: (§2)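 Pots of loam–sand mix; preemergence directed soil spray at sowing, postemergence spray at one- to two-leaf stage. Readout: visual injury vs untreated controls, ~10 d, 0–100 scale.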

kochia (Kochia scoparia) [2] = experiment: Test A preemergence, kochia; details: 0 to 100 scale; for Kochia plant response rating: 0 is no effect, 100 is complete control
Summary of the method: as §2

[3] = tested on: sedge, umbrella (small-flower umbrella sedge, Cyperus difformis); experiment: Test B flooded paddy test, umbrella sedge; details: Flood, 250 g ai/ha, applied to paddy water, 2-leaf stage, visual evaluation after 13 to 15 d
Summary of the method: as §1

[4] = tested on: galium (catchweed bedstraw, Galium aparine); experiment: Test A postemergence, galium; details: 0 to 100 scale
Summary of the method: as §2

corn (Zea mays) = experiment: Test A postemergence, corn; details: 0 to 100 scale
Summary of the method: as §2

[5] = tested on: blackgrass (Alopecurus myosuroides); experiment: Test A postemergence, blackgrass; details: 0 to 100 scale
Summary of the method: as §2

kochia (Kochia scoparia) [6] = experiment: Test A postemergence, kochia; details: 0 to 100 scale
Summary of the method: as §2

[7] = tested on: pigweed (Amaranthus retroflexus); experiment: Test A postemergence, pigweed; details: 0 to 100 scale
Summary of the method: as §2

[8] = tested on: foxtail, giant (Setaria faberii); experiment: Test A preemergence, giant foxtail; details: 0 to 100 scale; for Foxtail, Giant plant response rating: 0 is no effect, 100 is complete control
Summary of the method: as §2

[9] = tested on: ragweed (common ragweed, Ambrosia elatior); experiment: Test A preemergence, ragweed; details: 0 to 100 scale; for Ragweed plant response rating: 0 is no effect, 100 is complete control
Summary of the method: as §2

[10] = tested on: barnyardgrass (Echinochloa crus-galli); experiment: Test A postemergence, barnyardgrass; details: 0 to 100 scale
Summary of the method: as §2

[11] = tested on: barnyardgrass (Echinochloa crus-galli); experiment: Test B flooded paddy test, barnyardgrass; details: Flood, 250 g ai/ha, applied to paddy water, 2-leaf stage, visual evaluation after 13 to 15 d
Summary of the method: as §1

[12] = tested on: barnyardgrass (Echinochloa crus-galli); experiment: Test A preemergence, barnyardgrass; details: 0 to 100 scale; for Barnyardgrass plant response rating: 0 is no effect, 100 is complete control
Summary of the method: as §2

[13] = tested on: ryegrass, Italian (Lolium multiflorum); experiment: Test A preemergence, Italian ryegrass; details: 0 to 100 scale; for Ryegrass, Italian plant response rating: 0 is no effect, 100 is complete control
Summary of the method: as §2

[14] = tested on: ducksalad (Heteranthera limosa); experiment: Test B flooded paddy test, ducksalad; details: Flood, 250 g ai/ha, applied to paddy water, 2-leaf stage, visual evaluation after 13 to 15 d
Summary of the method: as §1

[15] = tested on: foxtail, giant (Setaria faberii); experiment: Test A postemergence, giant foxtail; details: 0 to 100 scale
Summary of the method: as §2

[16] = tested on: wheat (Triticum aestivum); experiment: Test A postemergence, wheat; details: 0 to 100 scale
Summary of the method: as §2

[17] = tested on: ryegrass, Italian (Lolium multiflorum); experiment: Test A postemergence, Italian ryegrass; details: 0 to 100 scale
Summary of the method: as §2

[18] = tested on: ragweed (common ragweed, Ambrosia elatior); experiment: Test A postemergence, ragweed; details: 0 to 100 scale
Summary of the method: as §2

[19] = 125 g ai/ha, 0 no effect, 100 complete control
[20] = 500 g ai/ha, 0 no effect, 100 complete control

CC(COc1cc(F)c(F)c(F)c1)Nc1ncc(C(F)(F)F)c(N)n1 (centres unmarked) [Compound 36]
Plant response rating, Rice (0 to 100 scale, 0 is no effect, 100 is complete control) (rice (Oryza sativa)): 0
Pigweed plant response rating ([1]; 125 g ai/ha): 0
Plant response rating, Pigweed ([1]; 500 g ai/ha): 0
Kochia plant response rating (kochia (Kochia scoparia) [2]; 125 g ai/ha): 70
Plant response rating, Kochia (kochia (Kochia scoparia) [2]; 500 g ai/ha): 30
Plant response rating, Sedge, Umbrella (0 to 100 scale, 0 is no effect, 100 is complete control) [3]: 0
Plant response rating, Galium ([4]; 125 g ai/ha): 0
Plant response rating, Galium ([4]; 500 g ai/ha): 0
Plant response rating, Corn (corn (Zea mays); 125 g ai/ha): 10
Plant response rating, Corn (corn (Zea mays); 500 g ai/ha): 0
Plant response rating, Blackgrass ([5]; 125 g ai/ha): 0
Plant response rating, Blackgrass ([5]; 500 g ai/ha): 0
Plant response rating, Kochia (kochia (Kochia scoparia) [6]; 125 g ai/ha): 0
Plant response rating, Kochia (kochia (Kochia scoparia) [6]; 500 g ai/ha): 0
Plant response rating, Pigweed ([7]; 125 g ai/ha): 0
Plant response rating, Pigweed ([7]; 500 g ai/ha): 0
Foxtail, Giant plant response rating ([8]; 125 g ai/ha): 0
Plant response rating, Foxtail, Giant ([8]; 500 g ai/ha): 0
Ragweed plant response rating ([9]; 125 g ai/ha): 0
Plant response rating, Ragweed ([9]; 500 g ai/ha): 0
Plant response rating, Barnyardgrass ([10]; 125 g ai/ha): 0
Plant response rating, Barnyardgrass ([10]; 500 g ai/ha): 0
Plant response rating, Barnyardgrass (0 to 100 scale, 0 is no effect, 100 is complete control) [11]: 0
Barnyardgrass plant response rating ([12]; 125 g ai/ha): 0
Plant response rating, Barnyardgrass ([12]; 500 g ai/ha): 0
Ryegrass, Italian plant response rating ([13]; 125 g ai/ha): 0
Plant response rating, Ryegrass, Italian ([13]; 500 g ai/ha): 0
Plant response rating, Ducksalad (0 to 100 scale, 0 is no effect, 100 is complete control) [14]: 0
Plant response rating, Foxtail, Giant ([15]; 125 g ai/ha): 0
Plant response rating, Foxtail, Giant ([15]; 500 g ai/ha): 0
Plant response rating, Wheat ([16]; 125 g ai/ha): 0
Plant response rating, Wheat ([16]; 500 g ai/ha): 0
Plant response rating, Ryegrass, Italian ([17]; 125 g ai/ha): 0
Plant response rating, Ryegrass, Italian ([17]; 500 g ai/ha): 0
Plant response rating, Ragweed ([18]; 125 g ai/ha): 0
Plant response rating, Ragweed ([18]; 500 g ai/ha): 0

CC(Nc1ncc(C(F)(F)F)c(N)n1)c1coc2cc(Cl)ccc12 (racemic) [Compound 77]
Plant response rating, Rice (0 to 100 scale, 0 is no effect, 100 is complete control) (rice (Oryza sativa)): 0
Pigweed plant response rating ([1]; 125 g ai/ha): 40
Pigweed plant response rating ([1]; 500 g ai/ha): 90
Kochia plant response rating (kochia (Kochia scoparia) [2]; 125 g ai/ha): 50
Kochia plant response rating (kochia (Kochia scoparia) [2]; 500 g ai/ha): 60
Plant response rating, Sedge, Umbrella (0 to 100 scale, 0 is no effect, 100 is complete control) [3]: 0
Plant response rating, Galium [4, 19]: 50
Plant response rating, Galium [4, 20]: 80
Plant response rating, Corn (corn (Zea mays); [19]): 0
Plant response rating, Corn (corn (Zea mays); [20]): 20
Plant response rating, Blackgrass [5, 19]: 0
Plant response rating, Blackgrass [5, 20]: 0
Plant response rating, Kochia (kochia (Kochia scoparia) [6]; [19]): 30
Plant response rating, Kochia (kochia (Kochia scoparia) [6]; [20]): 90
Plant response rating, Pigweed [7, 19]: 70
Plant response rating, Pigweed [7, 20]: 100
Foxtail, Giant plant response rating ([8]; 125 g ai/ha): 20
Foxtail, Giant plant response rating ([8]; 500 g ai/ha): 40
Ragweed plant response rating ([9]; 125 g ai/ha): 80
Ragweed plant response rating ([9]; 500 g ai/ha): 90
Plant response rating, Barnyardgrass [10, 19]: 0
Plant response rating, Barnyardgrass [10, 20]: 0
Plant response rating, Barnyardgrass (0 to 100 scale, 0 is no effect, 100 is complete control) [11]: 0
Barnyardgrass plant response rating ([12]; 125 g ai/ha): 0
Barnyardgrass plant response rating ([12]; 500 g ai/ha): 0
Ryegrass, Italian plant response rating ([13]; 125 g ai/ha): 20
Ryegrass, Italian plant response rating ([13]; 500 g ai/ha): 30
Plant response rating, Ducksalad (0 to 100 scale, 0 is no effect, 100 is complete control) [14]: 0
Plant response rating, Foxtail, Giant [15, 19]: 0
Plant response rating, Foxtail, Giant [15, 20]: 20
Plant response rating, Wheat [16, 19]: 20
Plant response rating, Wheat [16, 20]: 30
Plant response rating, Ryegrass, Italian [17, 19]: 0
Plant response rating, Ryegrass, Italian [17, 20]: 40
Plant response rating, Ragweed [18, 19]: 20
Plant response rating, Ragweed [18, 20]: 90

C[C@@H](Nc1ncc(C(F)(F)F)c(N)n1)c1cc2ccccc2o1 [Compound 22, N2-[(1R)-1-(2-benzofuranyl)ethyl]-5-(trifluoromethyl)-2,4-pyrimidinediamine]
plant injury at 250 g/ha (rice (Oryza sativa); Oryza sativa, 360 h, read-out: Plant response rating, Rice (0 to 100 scale, 0 is no effect, 100 is complete control)): 0%
Plant response rating, Pigweed ([1]; 1000 g ai/ha): 100
Plant response rating, Kochia (kochia (Kochia scoparia) [2]; 1000 g ai/ha): 100
pest or weed control at 250 g/ha ([3]; Cyperus difformis, 360 h, read-out: Plant response rating, Sedge, Umbrella (0 to 100 scale, 0 is no effect, 100 is complete control)): 95%
pest or weed control at 1000 g/ha ([4]; Galium, post-emergence, 240 h, 1000 g ai/ha, read-out: Plant response rating, Galium): 90%
Corn plant response rating (crop injury, 0 = no effect, 100 = complete kill) at 1000 g/ha (corn (Zea mays); Zea mays, post-emergence, 240 h, 1000 g ai/ha): 100%
pest or weed control at 1000 g/ha ([5]; Alopecurus myosuroides, post-emergence, 240 h, 1000 g ai/ha, read-out: Plant response rating, Blackgrass): 90%
pest or weed control at 1000 g/ha (kochia (Kochia scoparia) [6]; Bassia scoparia, post-emergence, 240 h, 1000 g ai/ha, read-out: Plant response rating, Kochia): 80%
pest or weed control at 1000 g/ha ([7]; Amaranthus retroflexus, post-emergence, 240 h, 1000 g ai/ha, read-out: Plant response rating, Pigweed): 100%
Plant response rating, Foxtail, Giant ([8]; 1000 g ai/ha): 100
Plant response rating, Ragweed ([9]; 1000 g ai/ha): 100
pest or weed control at 1000 g/ha ([10]; Echinochloa crus-galli, post-emergence, 240 h, 1000 g ai/ha, 0 no effect, 100 complete control, read-out: Plant response rating, Barnyardgrass): 100%
pest or weed control at 250 g/ha ([11]; Echinochloa crus-galli, 360 h, read-out: Plant response rating, Barnyardgrass (0 to 100 scale, 0 is no effect, 100 is complete control)): 40%
Plant response rating, Barnyardgrass ([12]; 1000 g ai/ha): 100
Plant response rating, Ryegrass, Italian ([13]; 1000 g ai/ha): 100
pest or weed control at 250 g/ha ([14]; Heteranthera limosa, 360 h, read-out: Plant response rating, Ducksalad (0 to 100 scale, 0 is no effect, 100 is complete control)): 100%
pest or weed control at 1000 g/ha ([15]; Setaria faberi, post-emergence, 240 h, 1000 g ai/ha, read-out: Plant response rating, Foxtail, Giant): 90%
plant injury at 1000 g/ha ([16]; Triticum aestivum, post-emergence, 240 h, 1000 g ai/ha, read-out: Plant response rating, Wheat): 40%
pest or weed control at 1000 g/ha ([17]; Lolium multiflorum, post-emergence, 240 h, 1000 g ai/ha, read-out: Plant response rating, Ryegrass, Italian): 100%
pest or weed control at 1000 g/ha ([18]; Ambrosia artemisiifolia, post-emergence, 240 h, 1000 g ai/ha, read-out: Plant response rating, Ragweed): 80%
